Assay results published in PubChem BioAssay (NCI).
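All cell lines were grown in 96-well plates and treated with compound for 48 hours. GI50: concentration for 50% inhibition of growth. At the TGI there is no net growth.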 Where a SMILES comes first, the peptide text is derived from it. Bridges are numbered along the chain shown (N, C = ends). The star is where a group is joined. Cbz = O=C(OCc1ccccc1)*

Experiments:
Test in all cases: NCI-60 cell line screen, 48 h
[1] = test system: HL-60(TB) leukemia
[2] = test system: HS 578T breast
[3] = test system: HCC-2998 colon
[4] = test system: OVCAR-4 ovarian
[5] = test system: SW-620 colon
[6] = test system: MCF7 breast
[7] = test system: CCRF-CEM leukemia
[8] = test system: OVCAR-8 ovarian
[9] = test system: MDA-N
[10] = test system: MALME-3M melanoma

SMILES | TGI [1] [µM] | TGI [2] [µM] | TGI [3] [µM] | TGI [4] [µM] | TGI [5] [µM] | TGI [6] [µM] | TGI [7] [µM] | TGI [8] [µM] | TGI [9] [µM] | TGI [10] [µM] | GI50 [3] [µM] | GI50 [4] [µM]
COc1cc(/C=N\NC(=O)C[N+](C)(C)C)cc(OC)c1OC | > 10 | > 10 | > 10 | > 10 | > 10 | > 10 | > 10 | > 10 | > 10 | > 10 |  | 
C[C@@H]1CC[C@@H](C)[C@](C)(CCc2ccoc2)C/C=C\C=C/1C(=O)O | > 50 | > 50 | > 50 | > 50 | > 50 | > 50 | > 50 | > 50 | > 50 | > 50 |  | 
CC1C2CC(C/C2=N/O)C1(C)C (stereo not given) | > 100 | > 100 | > 100 | > 100 | > 100 | > 100 | > 100 | > 100 | > 100 | > 100 |  | 
CC(=O)CC(C)(C)NC(=O)[C@@]1(O)CC[C@H]2[C@@H]3CCC4=CC(=O)CC[C@@H]4[C@H]3CC[C@@]21C | > 100 | > 100 | > 100 | > 100 | > 100 |  | > 100 | > 100 | > 100 | > 100 |  | 
Cc1cc(C)c2c(=N)c3ccccc3n(CCCCCCO)c2n1 | 6.19 | 8.37 | 7.07 | 9.85 | > 36.1 | 8.56 | 9.64 | 5.49 | 7.42 | 5.95 |  | 
O=C1CCC2(O)C3Cc4ccc(Oc5nnnn5-c5ccccc5)c5c4C2(CCN3CC2CC2)C1O5 (stereo not given) |  | > 100 |  | > 100 | > 100 | > 100 | 47.4 | > 100 | 51 | 32.7 |  | 
CCNc1ncnc2c1nnn2CC | > 100 |  | > 100 | > 100 | > 100 | > 100 | > 100 | > 100 | > 100 | > 100 |  | 
Cc1cc(O)ccc1C1(c2ccc(F)cc2)OC(=O)c2ccccc21 (stereo not given) | > 72.2 | 2.41 | 15.3 | 1.08 | 25.5 | 4.38 | > 95.5 | 2.05 | 25 | 26.8 |  | 
COc1ccc2c(-c3ccc(OCCN(C)C)cc3)c(Oc3ccc(Cl)cc3)c(=O)oc2c1 |  | > 54.6 | 9.63 | > 95.7 | > 46.8 | 6.12 | 23.1 | > 46.9 | 4.39 | 3.48 |  | 
Nc1ccc(-c2nc3ccc(F)cc3s2)cc1 |  | > 100 | 45.3 | > 100 | > 100 |  | > 100 | > 100 | > 100 | > 100 | 17.8 | 23.1
CCCCCn1c(=O)c2c(=O)[nH][nH]c2c2ccccc21 | > 100 | > 100 | > 100 | > 100 | > 100 | > 100 | > 100 | > 100 | > 100 | > 100 |  | 
CNC(=S)N/N=C(\C)c1nc2ncccc2[nH]1 | 52.8 | > 84.3 | > 100 | > 100 | > 100 | > 100 | > 100 | > 100 | > 100 | > 100 |  | 
C=C(Br)CNCC(=C)Br | > 100 | > 100 | > 100 | > 100 | > 100 | > 100 | > 100 | > 100 | > 100 | > 100 |  | 
CCOC(=O)c1c(N2CCOCC2)[nH]c(=O)c(C(c2cccs2)c2c(O)c(C(=O)OCC)c(N3CCOCC3)[nH]c2=O)c1O |  | > 100 | > 100 | > 100 | > 100 | > 100 | > 100 | > 100 | > 100 | > 100 |  | 
O=C(O)c1cc(Cl)cc2c1NC1(N2)C(=O)Nc2ccccc21 (stereo not given) |  |  | > 100 | > 100 | > 100 | > 100 | > 100 | > 100 | > 100 | > 100 |  | 
Oc1nc(N/N=C/c2ccccc2)[nH]c1/C=C1\C=Nc2ccccc21 | > 100 | > 100 |  | > 100 | > 100 | > 100 | 74.3 | > 100 | > 100 | > 100 |  | 
COC(=O)C1CCCCNC(=O)CCC(NC(=O)OCc2ccccc2)C(=O)N1 (stereo not drawn) (Cbz-Glu-Lys-OMe; lactam 1-2; configuration not given here) | > 100 | > 100 |  | > 100 | > 100 | > 100 | > 100 | > 100 | > 100 | > 100 |  | 
O/N=C1/C2CC3CC1(c1ccccc1)CC(/C3=N/O)/C2=N\O (stereo not given) | > 100 | > 100 | > 100 | > 100 | > 100 | > 100 | > 100 | > 100 | > 100 | > 100 |  | 
Clc1nc(Nc2nc3ccccc3[nH]2)nc(Cl)c1Cc1ccccc1 | > 100 | > 100 |  | > 100 | > 100 |  | > 100 | > 100 | > 100 | > 100 |  | 
O/N=C1\CCc2nonc2\C1=N/Nc1ccccc1 | > 100 | > 100 | > 100 | > 100 | > 100 |  | > 100 | > 100 | > 100 | > 100 |  | 
CC(C)=Nn1cnc(C(=N)C#N)c1N | > 100 |  | > 100 | > 100 | > 100 | > 100 | > 100 | > 100 | > 100 | > 100 |  | 
CCC(=O)NC(OCC1(CC)COC1)(C(F)(F)F)C(F)(F)F | > 100 | > 100 | > 100 |  |  | > 100 | > 100 |  | > 100 | > 100 |  | 
COP(=O)(OC)C(NC=O)P(=O)(OC)OC | > 100 | > 100 | > 100 | > 100 | > 100 | > 100 | > 100 | > 100 | > 100 | > 100 |  | 

SMILES | TGI [1] [µM] | TGI [2] [µM] | TGI [3] [µM] | TGI [4] [µM] | TGI [5] [µM] | TGI [6] [µM] | TGI [7] [µM] | TGI [8] [µM] | TGI [9] [µM] | TGI [10] [µM] | GI50 [3] [µM] | GI50 [4] [µM]
O=C1c2ccccc2-c2nc(-c3ccccc3)cc3c2c1nc1ccccc13 | 15 | 63.9 | 26.7 | > 100 | 36.6 | 21.9 | 28.2 | 66.8 | 3.67 | 12.8 |  | 
Cc1ccc(N=C2SC(c3ccc(C)cc3)(c3ccc(C)cc3)c3ccccc32)cc1 | > 100 | > 100 | > 100 | > 100 | > 100 | > 100 | > 100 | > 100 | > 100 | > 100 |  | 
CN(C)Cc1cc(C(=O)/C=C/c2cccc(Cl)c2)cc(CN(C)C)c1O | 4.58 | 32.7 | 23.8 |  | 17.5 | 23.3 | 8.25 | 61.3 | 10.3 |  |  | 
O=C1NC2CCCCC2N=C1/C(C(=O)c1ccccc1)=C(\O)c1ccccc1 (stereo not given) | > 100 | > 100 | > 100 |  | > 100 | > 100 | 84.7 | 86.6 | > 100 | > 100 |  | 
CC(NNC(=O)c1ccncc1)c1ccc(Cl)c(Cl)c1 (stereo not given) | > 100 | > 100 | > 100 | > 100 | > 100 | > 100 | > 100 | > 100 | > 100 | > 100 |  | 
COc1cc(C(c2cccc3ccccc23)N2C(=O)CCC2C(=O)NCc2ccccc2)cc(OC)c1OC (stereo not given) | > 100 | > 100 | > 100 | > 100 | > 100 | > 100 | > 100 | > 100 | > 100 | > 100 |  | 
N#Cc1c(Nc2nc3ccccc3s2)c2ccccc2n2c1nc1ccccc12 | > 100 | > 100 | > 100 | > 100 | > 100 | > 100 |  | > 100 | > 100 | > 100 |  | 
CSc1nc(C#N)c(N)n1C | > 100 | > 100 |  | > 100 | > 100 |  | > 100 | > 100 | > 100 | > 100 |  | 
Cc1nn(C)c2nc3ccc(Cl)cc3c(-c3ccccc3)c12 | > 100 |  | > 100 | > 100 | > 100 | > 100 | > 100 | > 100 | > 100 | > 100 |  | 
CCCCc1ccc(-n2sc3ncccc3c2=O)cc1 | 6.07 | 43.2 | 33.7 | 58 | 72.1 | 72.2 |  | 45.7 | 29.3 | 14.9 |  | 
CC(C)C(C/C=C1/CC(CO)(COC(=O)C2CCCCC2)OC1=O)C(C)C (stereo not given) |  | 43.5 | 59.8 | 41.4 | 42.5 | 36.3 | 63.2 | 32.7 | 38.8 | 42.3 |  | 
COc1ccc2c(c1OC)C(=O)O[C@@H]2[C@H]1c2cc3c(cc2CCN1C)OCO3 | > 100 | > 100 | > 100 | > 100 | > 100 | > 100 |  | > 100 | > 100 |  |  | 
COC(=O)/C(=C\c1ccco1)P(=O)(OC)OC |  | > 100 | > 100 | 33.7 | > 100 | > 100 | 94.2 | > 100 | > 100 | 59 |  | 
CCOP(=O)(OCC)C1(O)CC(n2cc(C)c(=O)[nH]c2=O)OC1CO (stereo not given) | > 100 | > 100 | > 100 | > 100 | > 100 | > 100 |  | > 100 | > 100 | > 100 |  | 
COc1cc(OC)cc(-n2c(N)c(-c3nc4ccccc4n3C)c3ccc([N+](=O)[O-])cc3c2=O)c1 |  | 83.3 | > 100 | 88.4 | > 100 |  |  | > 100 | > 100 |  |  | 
COC1=CC(=O)c2c(O)c3c(c(O)c2C1=O)C[C@](C)(O)C[C@@H]3O | 7.91 | 81.4 | 10.7 | 13.1 | 14 | 16.3 | 33.9 | 15.7 | 3.35 | 2.59 |  | 
CCOC(=O)C(NC(=O)CC)(Nc1ccc(S(=O)(=O)Nc2nc(C)cc(C)n2)cc1)C(F)(F)F (stereo not given) | > 100 | > 100 | > 100 | > 100 | > 100 | > 100 | > 100 | > 100 | > 100 | > 100 |  | 
COc1ccc(/C(=N/Nc2nc3ccccc3[nH]2)C(=O)O)cc1 | > 100 | > 100 | > 100 | > 100 | > 100 | > 100 | > 100 | > 100 | > 100 | > 100 |  | 
CC(=O)C12C[C@](C#N)(N3CCCCCC3)C1C=Cc1ccccc12 (stereo not given in full) | > 100 | > 100 | > 100 | > 100 | > 100 | > 100 | > 100 | > 100 | > 100 |  |  | 
CCN1CCCC(Nc2cc(C)nc(/N=C(/N)Nc3ccc(Cl)c(Cl)c3)n2)C1 (stereo not given) | 1.33 |  | 1.89 | 4.97 |  | 3.59 | 2.4 |  | 3.16 | 4.02 |  | 
CSCCCNC(=O)c1csc(-c2csc(CCNC(=O)CNC(=O)CNC(=O)CNC(=O)OC(C)(C)C)n2)n1 |  | > 100 | > 100 | > 100 | > 100 | > 100 | > 100 | > 100 | > 100 | > 100 |  | 
COc1cc(/C=C2\Cc3cc(OC)c(OC)cc3C2=O)cc(OC)c1 | > 100 | > 100 |  | > 88.7 | > 100 | > 100 | > 100 | > 67.5 | 39.2 | > 100 |  | 
